Each compound was assayed against TNFα (Homo sapiens, UniProt P01375) (assay: TNF induced HEK-Blue assay (NF-kB-driven secreted alkaline phosphatase reporter)). Conditions: TNFα 0.5 ng/mL, HEK-Blue-CD40L cells, 18 h; read-out: TNF induced HEK-Blue assay IC50 value.
Type: cell-based
Summary of the method: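 HEK-Blue-CD40L cells (NF-kB-driven SEAP reporter), 20,000/well, added after 30 min pre-incubation of compound (0.004–25 μM final) with TNFα 0.5 ng/mL final at 37 °C; 18 h incubation. SEAP read with QUANTI-Blue at 620 nm; IC50 from 4-parameter logistic fit, normalized to unstimulated and stimulated DMSO controls.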

TNFα, sequence (P01375 77-233 limits assumed): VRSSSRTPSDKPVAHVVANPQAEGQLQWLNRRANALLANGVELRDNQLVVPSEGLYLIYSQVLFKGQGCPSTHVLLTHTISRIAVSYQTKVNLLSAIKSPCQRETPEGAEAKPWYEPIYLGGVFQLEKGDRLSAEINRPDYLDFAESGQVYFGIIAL

IC50	Compound
< 1000 nM	C[C@@H](Nc1c(Cl)cnc2ccc(-c3cnc(C(C)(C)O)nc3)cc12)c1cc(-c2cccnc2)ccc1F [Example 553, (R)-2-(5-(3-chloro-4-((1-(2-fluoro-5-(pyridin-3-yl)phenyl)ethyl)amino)quinolin-6-yl)pyrimidin-2-yl)propan-2-ol]
< 1000 nM	Cc1nc2cc(F)c(-c3cnc(C(C)(C)O)nc3)cc2c(N[C@H](C)c2cc(CC(N)=O)ccc2F)c1Cl [Example 554, (R)-2-(3-(1-((3-chloro-7-fluoro-6-(2-(2-hydroxypropan-2-yl)pyrimidin-5-yl)-2-methylquinolin-4-yl)amino)ethyl)-4-fluorophenyl)acetamide]
< 1000 nM	C[C@@H](Nc1c(Cl)cnc2cccnc12)c1cc(-c2cncnc2)ccc1F [Example 555, (R)-3-chloro-N-(1-(2-fluoro-5-(pyrimidin-5-yl)phenyl)ethyl)-1,5-naphthyridin-4-amine]
10000 to 25000 nM	Cc1nc2ncccc2c(N[C@H](C)c2cc(-c3cncnc3)ccc2F)c1Cl [Example 556, (R)-3-chloro-N-(1-(2-fluoro-5-(pyrimidin-5-yl)phenyl)ethyl)-2-methyl-1,8-naphthyridin-4-amine]
1000 to 10000 nM	CC[C@H](Nc1c(Cl)cnc2ccccc12)c1cc(-c2cncnc2)ccc1F [Example 557, (S)-3-chloro-N-(1-(2-fluoro-5-(pyrimidin-5-yl)phenyl)propyl)quinolin-4-amine]
< 1000 nM	CC[C@@H](Nc1c(Cl)cnc2ccccc12)c1cc(-c2cncnc2)ccc1F [Example 558, (R)-3-chloro-N-(1-(2-fluoro-5-(pyrimidin-5-yl)phenyl)propyl)quinolin-4-amine]
< 1000 nM	Fc1ccc(-c2cncnc2)cc1[C@H](Nc1c(Cl)cnc2ccccc12)C(F)F [Example 559, (S)-3-chloro-N-(2,2-difluoro-1-(2-fluoro-5-(pyrimidin-5-yl)phenyl)ethyl)quinolin-4-amine]
1000 to 10000 nM	Cc1nc2cc(F)c(-c3cnc(N4CCNC(=O)C4)nc3)cc2c(N[C@H](C)c2cc(Br)ccc2F)c1Cl [Example 560, (R)-4-(5-(4-((1-(5-bromo-2-fluorophenyl)ethyl)amino)-3-chloro-7-fluoro-2-methylquinolin-6-yl)pyrimidin-2-yl)piperazin-2-one]
< 1000 nM	Cc1nc2cc(F)c(-c3cnc(N4CCNC(=O)C4)nc3)cc2c(N[C@H](C)c2cc(C#N)ccc2F)c1Cl [Example 561, (R)-3-(1-((3-chloro-7-fluoro-2-methyl-6-(2-(3-oxopiperazin-1-yl)pyrimidin-5-yl)quinolin-4-yl)amino)ethyl)-4-fluorobenzonitrile]
< 1000 nM	CC(Nc1c(Cl)cnc2ccc(-c3cnc(N4CCNC(=O)C4)nc3)cc12)c1nc(N)ccc1F (stereo not shown) [Example 562, 4-(5-(4-((1-(6-amino-3-fluoropyridin-2-yl)ethyl)amino)-3-chloroquinolin-6-yl)pyrimidin-2-yl) piperazin-2-one]
1000 to 10000 nM	C[C@H](Nc1c(Cl)cnc2ccc(-c3cnc(C(C)(C)O)nc3)cc12)[C@H]1CCCN(S(C)(=O)=O)C1 [Example 563, 2-(5-(3-chloro-4-(((S)-1-((S)-1-(methylsulfonyl)piperidin-3-yl)ethyl)amino)quinolin-6-yl)pyrimidin-2-yl)propan-2-ol]
1000 to 10000 nM	C[C@H](Nc1c(Cl)cnc2ccc(-c3cnc(C(C)(C)O)nc3)cc12)[C@H]1CCCN(S(=O)(=O)c2cnn(C)c2)C1 [Example 564, 2-(5-(3-chloro-4-(((S)-1-((S)-1-((1-methyl-1H-pyrazol-4-yl)sulfonyl)piperidin-3-yl)ethyl)amino)quinolin-6-yl)pyrimidin-2-yl)propan-2-ol]
10000 to 25000 nM	C[C@H](Nc1c(Cl)cnc2ccc(-c3cnc(C(C)(C)O)nc3)cc12)[C@H]1CCCN(C(=O)c2cn[nH]c2)C1 [Example 565, ((S)-3-((S)-1-((3-chloro-6-(2-(2-hydroxypropan-2-yl)pyrimidin-5-yl)quinolin-4-yl)amino)ethyl)piperidin-1-yl)(1H-pyrazol-4-yl)methanone]

— patent US10865191B2, “Heterocyclic compounds useful as modulators of TNF alpha” (BRISTOL-MYERS SQUIBB COMPANY, priority 2015, dated 2020)
